For the assay, the target named is T1, epithelial sodium channel (ENaC) (Mus musculus, UniProt Q61180+Q9WU38+Q9WU39).
T1 construct: Mouse kidney M-1 cells were cultivated in DMEM containing 5% FCS and 5 μM dexamethasone; endogenous in cells; host or cells: mouse kidney M-1 cells
T1 sequence (Q61180 1-699): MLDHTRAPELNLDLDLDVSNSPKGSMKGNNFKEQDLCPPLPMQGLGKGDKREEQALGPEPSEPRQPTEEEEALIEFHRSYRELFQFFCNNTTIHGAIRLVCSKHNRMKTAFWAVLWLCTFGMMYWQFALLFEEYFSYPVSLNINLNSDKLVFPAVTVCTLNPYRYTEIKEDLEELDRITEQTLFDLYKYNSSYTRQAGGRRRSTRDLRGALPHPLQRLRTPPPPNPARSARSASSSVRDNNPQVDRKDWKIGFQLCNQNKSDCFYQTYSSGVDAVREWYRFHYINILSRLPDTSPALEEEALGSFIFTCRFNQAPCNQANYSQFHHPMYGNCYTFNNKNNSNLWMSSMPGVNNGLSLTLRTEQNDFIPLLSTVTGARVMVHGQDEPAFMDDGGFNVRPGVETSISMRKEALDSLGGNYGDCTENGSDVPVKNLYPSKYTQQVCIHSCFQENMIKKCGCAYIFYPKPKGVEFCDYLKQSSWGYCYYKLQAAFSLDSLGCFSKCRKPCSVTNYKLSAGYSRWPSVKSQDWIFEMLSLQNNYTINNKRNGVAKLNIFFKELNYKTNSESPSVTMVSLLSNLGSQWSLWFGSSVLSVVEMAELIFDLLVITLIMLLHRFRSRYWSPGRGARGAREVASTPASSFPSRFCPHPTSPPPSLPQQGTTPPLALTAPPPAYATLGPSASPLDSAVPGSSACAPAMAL
T1 sequence (Q9WU38 1-638): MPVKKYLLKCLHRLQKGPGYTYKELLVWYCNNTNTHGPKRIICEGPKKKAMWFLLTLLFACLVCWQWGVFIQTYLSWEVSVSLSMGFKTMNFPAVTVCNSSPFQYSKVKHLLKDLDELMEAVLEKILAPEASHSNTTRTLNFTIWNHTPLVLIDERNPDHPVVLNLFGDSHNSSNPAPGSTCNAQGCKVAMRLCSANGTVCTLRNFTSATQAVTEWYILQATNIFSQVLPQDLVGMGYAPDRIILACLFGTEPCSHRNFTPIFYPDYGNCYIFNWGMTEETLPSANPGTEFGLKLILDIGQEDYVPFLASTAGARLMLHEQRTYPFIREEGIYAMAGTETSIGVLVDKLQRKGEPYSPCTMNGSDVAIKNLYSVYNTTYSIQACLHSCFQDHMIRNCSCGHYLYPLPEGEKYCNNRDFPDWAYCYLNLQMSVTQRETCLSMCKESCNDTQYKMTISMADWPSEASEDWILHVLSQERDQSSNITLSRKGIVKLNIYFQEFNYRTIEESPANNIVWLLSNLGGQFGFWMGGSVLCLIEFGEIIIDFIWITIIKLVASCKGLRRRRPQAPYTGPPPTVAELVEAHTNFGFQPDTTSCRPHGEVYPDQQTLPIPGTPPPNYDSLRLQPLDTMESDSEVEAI
T1 sequence (Q9WU39 1-655): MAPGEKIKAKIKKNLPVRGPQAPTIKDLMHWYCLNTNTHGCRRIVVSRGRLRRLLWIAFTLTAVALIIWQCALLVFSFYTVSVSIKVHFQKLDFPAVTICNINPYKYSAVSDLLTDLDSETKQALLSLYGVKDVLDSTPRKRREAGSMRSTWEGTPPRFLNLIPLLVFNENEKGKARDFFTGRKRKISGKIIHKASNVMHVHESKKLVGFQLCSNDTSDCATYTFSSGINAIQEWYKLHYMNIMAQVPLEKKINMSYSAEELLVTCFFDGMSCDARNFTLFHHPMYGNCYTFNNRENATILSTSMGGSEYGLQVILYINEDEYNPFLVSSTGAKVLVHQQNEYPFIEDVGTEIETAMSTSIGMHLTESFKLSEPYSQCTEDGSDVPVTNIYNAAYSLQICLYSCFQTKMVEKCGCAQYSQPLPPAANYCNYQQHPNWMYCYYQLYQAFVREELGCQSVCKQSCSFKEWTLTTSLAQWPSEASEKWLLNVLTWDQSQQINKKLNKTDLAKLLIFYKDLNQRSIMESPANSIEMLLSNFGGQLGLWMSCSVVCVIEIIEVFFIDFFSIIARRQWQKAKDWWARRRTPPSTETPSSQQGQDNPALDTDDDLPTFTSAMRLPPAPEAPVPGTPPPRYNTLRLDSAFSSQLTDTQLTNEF
Kind of assay: Ussing chamber: inhibition of amiloride sensitive short circuit current (I_sc) in M-1 cells. It is filed as cell-based. As to conditions: Mouse kidney M-1 cells on transwell filters, Ussing chamber at 37° C., compound added to the apical solution. How it is done:
Mouse kidney M-1 cells were cultivated in DMEM containing 5% FCS and 5 μM dexamethasone for 10 to 12 days on polyester transwell filters. Filters were inserted into a teflon-coated well-plate which fit into the in-house ussing chamber system. Prior to measurement the medium of M-1 cells was replaced with Caco-2 transport buffer (Invitrogen, Germany). During measurements, the Ussing chamber temperature was kept at 37° C. Short circuit currents (I_sc) were measured in the voltage-clamp mode using an in-house built amplifier (Boehringer Ingelheim, Biberach) with the software package Lab View for data acquisition and analysis. The transepithelial electrical resistance (TEER) was determined by the application of voltage steps of ±5 mV every 5 sec. Compounds were administered at a final concentration of 3 μM or at increasing concentrations (1-3-10 μM) to the apical solution. At the end of each experiment the amiloride sensitive I_SC was measured by adding 3 μM amiloride to the apical compartment. Results are expressed as inhibition in percent of the amiloride effect or as IC50. Results are listed in tables 1 to 5 and further examples listed above.

A word on the IC50: it is the concentration that gives 50% inhibition.

The compound `CS(=O)(=O)N1CCC(CCc2ccccc2)(CNC(N)=NC(=O)c2nc(Cl)c(N)nc2N)CC1` [Example 1.1] displayed an IC50 of 0.034 µM.

The compound `CC(C)NC(=O)N1CCC(CCc2ccccc2)(CNC(N)=NC(=O)c2nc(Cl)c(N)nc2N)CC1` [Example 1.2] showed an IC50 of 0.008 µM. Under `CN1CCC(CCc2ccccc2)(CNC(N)=NC(=O)c2nc(Cl)c(N)nc2N)CC1` [Example 1.3] stands 0.033 µM. Consider `NC(=O)N1CCC(CCc2ccccc2)(CNC(N)=NC(=O)c2nc(Cl)c(N)nc2N)CC1` [Example 1.4], for which the IC50 was 0.027 µM. Consider `NC(=NC(=O)c1nc(Cl)c(N)nc1N)NCC1(CCc2ccccc2)CCN(C(=O)c2ccccc2)CC1` [Example 1.5], for which the IC50 is 0.034 µM. Regarding `NC(=NC(=O)c1nc(Cl)c(N)nc1N)NCC1(CCc2ccccc2)CCN(Cc2ccccc2)CC1` [Example 1.6], the IC50 is 0.04 µM.

`CC(C)N1CCC(CCc2ccccc2)(CNC(N)=NC(=O)c2nc(Cl)c(N)nc2N)CC1` [Example 1.7]: the IC50 is 0.063 µM. Compound `CC(C)NC(=O)N1CCC(CNC(N)=NC(=O)c2nc(Cl)c(N)nc2N)(Cc2ccccc2)CC1` [Example 1.8] showed an IC50 of 0.017 µM. Under `COCC(=O)N1CCC(CCc2ccccc2)(CNC(N)=NC(=O)c2nc(Cl)c(N)nc2N)CC1` [Example 1.9] stands 0.011 µM.

In the case of `CN(C)CCNC(=O)N1CCC(CCc2ccccc2)(CNC(N)=NC(=O)c2nc(Cl)c(N)nc2N)CC1` [Example 1.10], the IC50 amounted to 0.036 µM. With `CC(C)CC(=O)N1CCC(CCc2ccccc2)(CNC(N)=NC(=O)c2nc(Cl)c(N)nc2N)CC1` [Example 1.11] the figure was 0.017 µM; with `CCNC(=O)N1CCC(CCc2ccccc2)(CN/C(N)=N/C(=O)c2nc(Cl)c(N)nc2N)CC1` [Example 1.12], 0.012 µM. `CCCC(=O)N1CCC(CCc2ccccc2)(CNC(N)=NC(=O)c2nc(Cl)c(N)nc2N)CC1` [Example 1.13] yielded an IC50 of 0.013 µM.

With `COC(=O)CCC(=O)N1CCC(CCc2ccccc2)(CNC(N)=NC(=O)c2nc(Cl)c(N)nc2N)CC1` [Example 1.14], the half-maximal inhibitory concentration (IC50) stood at 0.02 µM. With `C[N+]1(C)CCC(CCc2ccccc2)(CNC(N)=NC(=O)c2nc(Cl)c(N)nc2N)CC1` [Example 1.15] the figure was 0.091 µM. Regarding `COC(=O)CN1CCC(CCc2ccccc2)(CNC(N)=NC(=O)c2nc(Cl)c(N)nc2N)CC1` [Example 1.16, {4-[N′-(3,5-diamino-6-chloro-pyrazine-2-carbonyl)guanidinomethyl]-4-phenethyl-piperidin-1-yl}-acetic acid methyl ester], the concentration for half-maximal inhibition (IC50) was 0.002 µM. Under `COC(=O)c1ccc(CCC2(CNC(N)=NC(=O)c3nc(Cl)c(N)nc3N)CCN(C(=O)OC(C)(C)C)CC2)cc1` [Example 1.17] stands 0.056 µM; under `COC(=O)CNC(=O)N1CCC(CCc2ccccc2)(CNC(N)=NC(=O)c2nc(Cl)c(N)nc2N)CC1` [Example 1.18], 0.028 µM; under `COC(=O)CCNC(=O)N1CCC(CCc2ccccc2)(CNC(N)=NC(=O)c2nc(Cl)c(N)nc2N)CC1` [Example 1.19], 0.024 µM.

As to `COC(=O)CCC(=O)N1CCC(CNC(N)=NC(=O)c2nc(Cl)c(N)nc2N)(Cc2ccccc2)CC1` [Example 1.20], the IC50 turned out to be 0.075 µM. Compound `CC(C)(C)OC(=O)NCCC(=O)N1CCC(CCc2ccccc2)(CNC(N)=NC(=O)c2nc(Cl)c(N)nc2N)CC1` [Example 1.22] yielded an IC50 of 0.037 µM.

`CC(C)(C)OC(=O)NCC(=O)N1CCC(CNC(N)=NC(=O)c2nc(Cl)c(N)nc2N)(Cc2ccccc2)CC1` [Example 1.24] displayed an IC50 of 0.027 µM.

As to `CC(C)(C)OC(=O)NCC(=O)N1CCC(CCc2ccccc2)(CNC(N)=NC(=O)c2nc(Cl)c(N)nc2N)CC1` [Example 1.25], the midpoint of inhibition, the IC50, lay at 0.018 µM. Under `CC(C)(C)OC(=O)NCCCCC(=O)N1CCC(CNC(N)=NC(=O)c2nc(Cl)c(N)nc2N)(Cc2ccccc2)CC1` [Example 1.26] stands 0.019 µM. Under `CC(C)(C)OC(=O)NCCCN1CCC(CCc2ccccc2)(CNC(N)=NC(=O)c2nc(Cl)c(N)nc2N)CC1` [Example 1.28] stands 0.036 µM; under `CN(C)CCCN1CCC(CCc2ccccc2)(CNC(N)=NC(=O)c2nc(Cl)c(N)nc2N)CC1` [Example 1.29], 0.086 µM; under `COC(=O)CN1CCC(CNC(N)=NC(=O)c2nc(Cl)c(N)nc2N)(Cc2ccccc2)CC1` [Example 1.30], 0.07 µM. With `CN(C)CCCN1CCC(CNC(N)=NC(=O)c2nc(Cl)c(N)nc2N)(Cc2ccccc2)CC1` [Example 1.31] the figure was 0.287 µM; with `CN(C)CCN1CCC(CCc2ccccc2)(CNC(N)=NC(=O)c2nc(Cl)c(N)nc2N)CC1` [Example 1.32], 0.046 µM; with `CC(C)(C)OC(=O)NCCNC(=O)N1CCC(CCc2ccccc2)(CNC(N)=NC(=O)c2nc(Cl)c(N)nc2N)CC1` [Example 1.33], 0.007 µM.

Regarding `CC(C)(C)OC(=O)NCCCNC(=O)N1CCC(CCc2ccccc2)(CNC(N)=NC(=O)c2nc(Cl)c(N)nc2N)CC1` [Example 1.34], the IC50 came out at 0.01 µM. Under `CC(C)(C)OC(=O)NCCCNC(=O)N1CCC(CNC(N)=NC(=O)c2nc(Cl)c(N)nc2N)(Cc2ccccc2)CC1` [Example 1.36] stands 0.018 µM; under `CC(C)(C)OC(=O)NCCCN1CCC(CNC(N)=NC(=O)c2nc(Cl)c(N)nc2N)(Cc2ccccc2)CC1` [Example 1.37], 0.064 µM; under `CN(C)CCCNC(=O)N1CCC(CNC(N)=NC(=O)c2nc(Cl)c(N)nc2N)(Cc2ccccc2)CC1` [Example 1.38], 0.042 µM. Under `CN(C)CCN1CCC(CNC(N)=NC(=O)c2nc(Cl)c(N)nc2N)(Cc2ccccc2)CC1` [Example 1.41] stands 0.091 µM; under `CC(C)(C)OC(=O)N1CCC(CNC(N)=NC(=O)c2nc(Cl)c(N)nc2N)(c2ccccc2)CC1` [Example 1.42], 0.025 µM; under `CC(C)NC(=O)N1CCC(CNC(N)=NC(=O)c2nc(Cl)c(N)nc2N)(c2ccccc2)CC1` [Example 1.43], 0.041 µM. Under `CC(C)NC(=O)N1CCC(CNC(N)=NC(=O)c2nc(Cl)c(N)nc2N)(c2ccc3c(c2)OCO3)CC1` [Example 1.44] stands 0.046 µM; under `COc1ccccc1C1(CNC(N)=NC(=O)c2nc(Cl)c(N)nc2N)CCN(C(=O)OC(C)(C)C)CC1` [Example 1.45], 0.066 µM; under `COC(=O)CCC(=O)N1CCC(CNC(N)=NC(=O)c2nc(Cl)c(N)nc2N)(c2ccccc2)CC1` [Example 1.47], 0.029 µM.

(Values after patent publication US9920035B2, “Heterocyclic compounds, medicaments containing said compounds, use thereof and processes for the preparation thereof” (Boehringer Ingelheim International GmbH, priority 2011, dated 2018).)
